Legend:
[1] = test system: IL-12 induced STAT4 phosphorlyation mediated by TYK2/JAK2; test: IL-12 Induced pSTAT4 in Human PBMC; assay type: cell-based; conditions: 0.5 h, 1.7 ng/mL IL-12 for 30 minutes
Summary of the method: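 pSTAT4 and total STAT4 quantified by MSD in lysates of cryopreserved human PBMC after 30-minute stimulation with 1.7 ng/mL IL-12 (final). Compound was added 1 hr beforehand at 37° C, 0.1% DMSO final.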

[2] = target: JAK2 (Homo sapiens (Human), UniProt O60674); test: JAK2 Radioactive Kinase Assay; assay type: biochemical; conditions: compound at 10 μM; substrate poly[Glu:Tyr] (4:1); read-out: JAK2 (% Inhibition at 10 μM)
Experimental: Peptide substrate, [[…]], (20 μM) was prepared in reaction buffer (20 mM Hepes pH 7.5, 10 mM MgCl2, 1 mM EGTA, 0.02% Brij35, 0.02 mg/mL BSA, 0.1 mM […], 2 mM DTT, 1% DMSO. TYK2 (Invitrogen) kinase was added, followed by compounds in DMSO. 33PATP was added to initiate the reaction in ATP at […]. Kinase reaction was incubated for 120 min at room temp and reactions were spotted onto P^81 ion exchange paper (Whatman #3698-915), and then washed extensively in 0.75% phosphoric acid, prior to reading the radioactivity counts. For JAK2 (Invitrogen) kinase assay the peptide substrate poly[Glu:Tyr] (4:1), 0.2 mg/mL was used, in the reaction carried out the same as for TYK2.

[3] = target: human TYK2 (JH2domain-pseudokinase) (Homo sapiens (Human), UniProt P29597); test: TYK2 JH2 Domain Binding Assay (KINOMEscan); conditions: 11-point 3-fold dilution, top concentration 30,000 nM, duplicate; read-out: hTYK2_JH2_Binding (Kd; nM)
Summary of the method: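 KINOMEscan competition binding: HEK293-expressed NFkB-fused TYK2 JH2 (G556–D888), DNA-tagged, against immobilized ligand beads, 1 h shaking at room temperature, 0.9% DMSO. Bound kinase quantified by qPCR.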

[4] = target: TYK2 (Homo sapiens (Human), UniProt P29597); test: TYK2 Radioactive Kinase Assay; assay type: biochemical; conditions: compound at 10 μM; peptide substrate […]; read-out: TYK2 (% Inhibition at 10 μM)
Sequence of TYK2 (P29597 whole entry): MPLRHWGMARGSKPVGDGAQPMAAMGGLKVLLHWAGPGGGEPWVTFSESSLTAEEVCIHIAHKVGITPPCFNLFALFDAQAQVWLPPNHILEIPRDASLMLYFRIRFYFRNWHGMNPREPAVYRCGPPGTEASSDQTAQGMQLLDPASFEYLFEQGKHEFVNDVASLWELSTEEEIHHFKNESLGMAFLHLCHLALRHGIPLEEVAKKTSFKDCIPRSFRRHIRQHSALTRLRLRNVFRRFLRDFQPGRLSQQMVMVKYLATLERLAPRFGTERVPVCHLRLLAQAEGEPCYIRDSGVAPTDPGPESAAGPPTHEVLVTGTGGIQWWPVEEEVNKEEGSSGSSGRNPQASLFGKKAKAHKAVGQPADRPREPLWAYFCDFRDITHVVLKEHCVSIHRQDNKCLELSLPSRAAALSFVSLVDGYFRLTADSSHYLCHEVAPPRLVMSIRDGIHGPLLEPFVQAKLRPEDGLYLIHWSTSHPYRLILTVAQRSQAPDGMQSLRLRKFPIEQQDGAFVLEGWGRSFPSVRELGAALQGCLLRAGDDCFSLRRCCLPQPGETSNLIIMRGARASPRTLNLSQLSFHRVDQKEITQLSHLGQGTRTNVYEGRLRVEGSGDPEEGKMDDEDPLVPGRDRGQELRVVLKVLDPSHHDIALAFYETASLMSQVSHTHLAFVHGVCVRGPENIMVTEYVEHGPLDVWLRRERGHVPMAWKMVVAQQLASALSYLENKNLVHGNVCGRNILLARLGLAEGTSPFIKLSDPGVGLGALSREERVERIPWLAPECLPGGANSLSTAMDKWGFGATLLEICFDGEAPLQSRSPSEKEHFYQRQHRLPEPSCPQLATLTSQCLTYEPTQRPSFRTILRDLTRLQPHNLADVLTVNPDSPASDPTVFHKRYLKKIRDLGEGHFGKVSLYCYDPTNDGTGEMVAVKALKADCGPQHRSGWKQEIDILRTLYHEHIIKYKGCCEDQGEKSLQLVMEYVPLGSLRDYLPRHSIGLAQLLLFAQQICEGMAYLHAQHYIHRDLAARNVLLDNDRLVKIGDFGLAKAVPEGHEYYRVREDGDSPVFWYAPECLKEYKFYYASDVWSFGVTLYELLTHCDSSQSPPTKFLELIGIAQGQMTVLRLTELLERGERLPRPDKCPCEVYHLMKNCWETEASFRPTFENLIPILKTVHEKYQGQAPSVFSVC

Sequence of JAK2 (O60674 whole entry): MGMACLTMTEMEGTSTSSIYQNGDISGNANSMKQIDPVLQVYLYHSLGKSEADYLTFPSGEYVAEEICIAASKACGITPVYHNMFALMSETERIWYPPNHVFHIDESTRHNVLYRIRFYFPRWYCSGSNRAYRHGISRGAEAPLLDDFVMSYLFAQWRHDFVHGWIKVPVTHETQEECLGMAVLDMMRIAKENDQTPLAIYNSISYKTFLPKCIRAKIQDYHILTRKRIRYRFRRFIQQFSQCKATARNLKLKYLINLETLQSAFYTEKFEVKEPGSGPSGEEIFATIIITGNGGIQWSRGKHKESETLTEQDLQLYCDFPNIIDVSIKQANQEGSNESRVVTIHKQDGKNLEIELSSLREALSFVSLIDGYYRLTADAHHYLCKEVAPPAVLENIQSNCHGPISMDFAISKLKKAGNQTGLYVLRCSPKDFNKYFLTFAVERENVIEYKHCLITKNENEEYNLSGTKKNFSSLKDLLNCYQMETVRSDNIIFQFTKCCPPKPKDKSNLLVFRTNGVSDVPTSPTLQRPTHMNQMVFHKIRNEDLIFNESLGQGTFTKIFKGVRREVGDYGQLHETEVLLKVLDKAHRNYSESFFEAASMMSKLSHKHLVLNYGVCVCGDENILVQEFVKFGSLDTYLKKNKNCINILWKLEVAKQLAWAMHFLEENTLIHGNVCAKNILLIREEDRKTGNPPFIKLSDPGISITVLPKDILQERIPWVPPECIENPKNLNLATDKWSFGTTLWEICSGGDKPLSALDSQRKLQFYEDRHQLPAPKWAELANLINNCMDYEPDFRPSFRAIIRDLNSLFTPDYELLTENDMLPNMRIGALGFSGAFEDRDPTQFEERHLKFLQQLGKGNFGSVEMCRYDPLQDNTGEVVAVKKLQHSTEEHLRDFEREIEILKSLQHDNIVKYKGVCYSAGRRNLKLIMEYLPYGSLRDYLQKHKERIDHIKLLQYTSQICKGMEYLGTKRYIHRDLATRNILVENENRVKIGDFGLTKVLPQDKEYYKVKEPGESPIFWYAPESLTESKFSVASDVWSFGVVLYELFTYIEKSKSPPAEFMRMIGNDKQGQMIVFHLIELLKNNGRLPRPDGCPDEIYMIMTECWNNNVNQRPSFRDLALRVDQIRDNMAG
Sequence of human TYK2 (JH2domain-pseudokinase) (P29597 556-888): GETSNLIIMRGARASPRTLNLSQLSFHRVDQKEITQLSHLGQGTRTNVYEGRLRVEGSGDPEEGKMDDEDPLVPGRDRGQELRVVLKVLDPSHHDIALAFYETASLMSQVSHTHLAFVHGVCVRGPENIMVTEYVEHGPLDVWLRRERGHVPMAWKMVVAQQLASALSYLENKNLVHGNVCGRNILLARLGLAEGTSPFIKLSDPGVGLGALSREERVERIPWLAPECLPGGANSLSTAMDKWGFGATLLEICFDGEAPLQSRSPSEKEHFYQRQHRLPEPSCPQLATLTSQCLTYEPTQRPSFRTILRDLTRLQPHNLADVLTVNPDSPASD

Structure (SMILES)	IC50 [1] [µM]	inhibition at 10 µM [2] [%]	Kd [3] [nM]	inhibition at 10 µM [4] [%]
CNc1cc(Nc2cccn([C@H]3CCCOC3)c2=O)nc2c(C(=O)N[C@@H]3CCC[C@@](C)(OC)C3)cnn12 [Compound I-94, N-((1R,3R)-3-Methoxy-3-methylcyclohexyl)-7-(methylamino)-5-((2-oxo-1-((S)-tetrahydro-2H-pyran-3-yl)-1,2-dihydropyridin-3-yl)amino)pyrazolo[1,5-a]pyrimidine-3-carboxamide]	–	< 50	1 to 10	< 50
CNc1cc(Nc2cccn([C@H]3CCCOC3)c2=O)nc2c(C(=O)N[C@H]3CCC[C@](C)(OC)C3)cnn12 [Compound I-95, N-((1S,3S)-3-Methoxy-3-methylcyclohexyl)-7-(methylamino)-5-((2-oxo-1-((S)-tetrahydro-2H-pyran-3-yl)-1,2-dihydropyridin-3-yl)amino)pyrazolo[1,5-a]pyrimidine-3-carboxamide]	–	< 50	1 to 10	< 50
CNc1cc(Nc2cccn([C@@H]3CCOC[C@@H]3OC)c2=O)nc2c(-c3cn(C(C)C)nn3)cnn12 [Compound I-116, 3-((3-(1-Isopropyl-1H-1,2,3-triazol-4-yl)-7-(methylamino)pyrazolo[1,5-a]pyrimidin-5-yl)amino)-1-((3R,4R)-3-methoxytetrahydro-2H-pyran-4-yl)pyridin-2(1H)-one]	–	< 50	1 to 10	< 50
CNc1cc(Nc2cccn([C@H]3CCOC[C@H]3OC)c2=O)nc2c(-c3cn(C(C)C)nn3)cnn12 [Compound I-117, 3-((3-(1-Isopropyl-1H-1,2,3-triazol-4-yl)-7-(methylamino)pyrazolo[1,5-a]pyrimidin-5-yl)amino)-1-((3S,4S)-3-methoxytetrahydro-2H-pyran-4-yl)pyridin-2(1H)-one]	–	< 50	> 10	< 50

Results, then the compound that gave them:

IC50 [1] [µM]	inhibition at 10 µM [2] [%]	Kd [3] [nM]	inhibition at 10 µM [4] [%]	Structure (SMILES)
> 1	< 50	< 0.2	< 50	CNc1cc(Nc2cccn(C3CCC[C@@](C)(O)C3)c2=O)nc2c(C(=O)NC3CC3)cnn12 (stereo in doubt) [Compound I-1, N-Cyclopropyl-5-((1-(3-hydroxy-3-methylcyclohexyl)-2-oxo-1,2-dihydropyridin-3-yl)amino)-7-(methylamino)pyrazolo[1,5-a]pyrimidine-3-carboxamide]
< 0.1	< 50	< 0.2	< 50	CNc1cc(Nc2cccn(C3CC(F)(F)C3)c2=O)nc2c(C(=O)N[C@@H]3CC[C@H]3OC)cnn12 [Compound I-48, 5-((1-(3,3-Difluorocyclobutyl)-2-oxo-1,2-dihydropyridin-3-yl)amino)-N-((1R,2R)-2-methoxycyclobutyl)-7-(methylamino)pyrazolo[1,5-a]pyrimidine-3-carboxamide]

Reference: patent US11414431B2, “Substituted pyrazolo[1,5-a]pyrimidines as TYK2 inhibitors” (Nimbus Lakshmi, Inc., priority 2018, dated 2022)
